Measured values: patent US9221791B2, “Metalloenzyme inhibitor compounds” (Viamet Pharmaceuticals, Inc., priority 2011, dated 2015)
≈ marks a conversion by molar mass, not a printed value.

These compounds were tested on Septoria tritici (ATCC 26517) (assay: Minimum Inhibitory Concentration (MIC) (Septoria tritici), CLSI-based microdilution). Conditions: Zymoseptoria tritici, ATCC26517, 168 h, S. tritici ATCC 26517; 22° C. for seven days; 50% reduction in growth; read-out: Septoria Rating (MIC).
Assay type: cell-based
Method: C. Minimum Inhibitory Concentration (MIC) (Septoria tritici)
Compounds of the present disclosure were assessed for their ability to inhibit the growth of a common strain of the fungal plant pathogen Septoria tritici (ATCC 26517) using a procedure based on a Clinical and Laboratory Standards Institute (CLSI) microdilution assay protocol for filamentous fungi.
Stock solutions of the test compounds and standards were prepared in DMSO at 6400 μg/mL. Each stock solution was used to prepare a 2-fold dilution series ranging from 16 to 0.016 μg/mL (total of 11 compound concentrations) in RPMI-1640 (Roswell Park Memorial Institute) medium containing 3-(N-morpholino)propanesulfonic acid (MOPS) buffer and 2% DMSO. A 100 μL aliquot of the dilutions was added to columns 1 (16 μg/mL compound) through 11 (0.016 μg/mL compound) of a 96-well microtiter plate. This format was replicated in a second row of the microtiter plate. Thus, each microtiter plate could include 11 concentrations of four test or control compounds replicated twice. A 100 μL aliquot of RPMI-1640/MOPS/2% DMSO medium was added to column 12 (no compound control) of the microtiter plate.
A fresh culture of S. tritici was used to prepare a solution of approximately 5×10^4 colony-forming units per milliliter (cfu/mL) in RPMI/MOPS medium without DMSO. A 100 µL aliquot of this solution was added to all 96 wells in the microtiter plate. […] The assay plates were incubated at 22° C. for seven days in the dark without shaking.
In each case of Table 3 the Septoria rating scale is as follows: […]
In the case of `OC(c1cncnc1)(c1ccc(F)cc1F)C(F)(F)c1ccc(Br)cn1` (centres unmarked) [Compound 58, 2-(5-Bromopyridin-2-yl)-1-(2,4-difluorophenyl)-2,2-difluoro-1-(pyrimidin-5-yl)ethanol], the MIC is reported as 1.5 µg/mL (≈ 3.5 µM). With `N#C/C=C/c1ccc(C(F)(F)C(O)(Cn2cnnn2)c2ccc(F)cc2F)nc1` (centres unmarked) [Compound 3, (E)-3-(6-(2-(2,4-Difluorophenyl)-1,1-difluoro-2-hydroxy-3-(1H-tetrazol-1-yl)propyl)pyridin-3-yl)acrylonitrile] the MIC was 1.5 µg/mL (≈ 3.71 µM). `OC(Cn1cnnn1)(c1ccc(F)cc1F)C(F)(F)c1ccc(Cl)cn1` (centres unmarked) [Compound 12, 1-(5-Chloropyridin-2-yl)-2-(2,4-difluorophenyl)-1,1-difluoro-3-(1H-tetrazol-1-yl)propan-2-ol] was tested, and the MIC was 1.5 µg/mL (≈ 3.87 µM). With `OC(Cn1cnnn1)(c1cc(F)ccc1F)C(F)(F)c1ccc(Br)cn1` (centres unmarked) [Compound 21, 1-(5-Bromopyridin-2-yl)-2-(2,5-difluorophenyl)-1,1-difluoro-3-(1H-tetrazol-1-yl)propan-2-ol] the MIC was greater than 4 µg/mL. With `OC(Cn1cnnn1)(c1ccc(F)cc1F)C(F)(F)c1ccc(N2CCCCC2)cn1` (centres unmarked) [Compound 82, 2-(2,4-Difluorophenyl)-1,1-difluoro-1-(5-(piperidin-1-yl)pyridin-2-yl)-3-(1H-tetrazol-1-yl)propan-2-ol] the MIC was 1.5 to 4 µg/mL (≈ 3.44 to 9.17 µM). For `OC(Cc1cncs1)(c1ccc(F)cc1F)C(F)(F)c1ccccn1` (centres unmarked) [Compound 86, 2-(2,4-Difluorophenyl)-1,1-difluoro-1-(pyridin-2-yl)-3-(thiazol-5-yl)propan-2-ol], the MIC was no more than 0.5 µg/mL. In the case of `OC(Cn1cnnn1)(c1ccc(F)cc1F)C(F)(F)c1ccc(Cc2ccc(Cl)nc2)cn1` (centres unmarked) [Compound 97, 1-(5-((6-chloropyridin-3-yl)methyl)pyridin-2-yl)-2-(2,4-difluorophenyl)-1,1-difluoro-3-(1H-tetrazol-1-yl)propan-2-ol], the MIC is reported as no more than 0.5 µg/mL. For `OC(Cn1cnnn1)(c1ccc(F)cc1F)C(F)(F)c1cc(Br)ccn1` (centres unmarked) [Compound 24, 1-(4-Bromopyridin-2-yl)-2-(2,4-difluorophenyl)-1,1-difluoro-3-(1H-tetrazol-1-yl)propan-2-ol], the MIC was 1.5 to 4 µg/mL (≈ 3.47 to 9.26 µM). Compound `OC(Cn1cnnn1)(c1ccc(F)cc1F)C(F)(F)c1ccc(/C=C/Cn2cnnn2)cn1` (centres unmarked) [Compound 42, (E)-1-(5-(3-(1H-Tetrazol-1-yl)prop-1-en-1-yl)pyridin-2-yl)-2-(2,4-difluorophenyl)-1,1-difluoro-3-(1H-tetrazol-1-yl)propan-2-ol] has an MIC greater than 4 µg/mL. With `O=C(c1ccc(C(F)(F)C(O)(Cn2cnnn2)c2ccc(F)cc2F)nc1)c1ccc(F)c(F)c1` (centres unmarked) [Compound 70, (3,4-Difluorophenyl)(6-(2-(2,4-difluorophenyl)-1,1-difluoro-2-hydroxy-3-(1H-tetrazol-1-yl)propyl)pyridin-3-yl)methanone] the MIC was no more than 0.5 µg/mL. In the case of `CC(F)(c1ccc(Br)cn1)C(O)(Cn1cnnn1)c1ccc(F)cc1F` (centres unmarked) [Compound 84, 3-(5-Bromopyridin-2-yl)-2-(2,4-difluorophenyl)-3-fluoro-1-(1H-tetrazol-1-yl)butan-2-ol], the MIC is reported as 1.5 µg/mL (≈ 3.5 µM). `OC(Cn1cnnn1)(c1ccc(F)cc1F)C(F)(F)c1ccc(C(F)(F)c2ccc(Cl)cc2)cn1` (centres unmarked) [Compound 74, 1-(5-((4-Chlorophenyl)difluoromethyl)pyridin-2-yl)-2-(2,4-difluorophenyl)-1,1-difluoro-3-(1H-tetrazol-1-yl)propan-2-ol] was tested, and the MIC was 1.5 to 4 µg/mL (≈ 2.92 to 7.78 µM). Compound `OC(Cc1cc[nH]n1)(c1ccc(F)cc1F)C(F)(F)c1ccc(-n2ccnn2)cn1` (centres unmarked) [Compound 64, 1-(5-(1H-1,2,3-Triazol-1-yl)pyridin-2-yl)-2-(2,4-difluorophenyl)-1,1-difluoro-3-(1H-pyrazol-3-yl)propan-2-ol] has an MIC greater than 4 µg/mL. For `COC/C=C\c1ccc(C(F)(F)C(O)(Cn2cnnn2)c2ccc(F)cc2F)nc1` (centres unmarked) [Compound 49, (Z)-2-(2,4-Difluorophenyl)-1,1-difluoro-1-(5-(3-methoxyprop-1-en-1-yl)pyridin-2-yl)-3-(1H-tetrazol-1-yl)propan-2-ol], the MIC was no more than 0.5 µg/mL.
